Legend:
[1] = for surface tension liquid-gas: Pendant drop shape; for mass density: 101.33 kPa, Liquid
[2] = xn = mol fraction of the nth substance listed; conditions: 298.15 K; for surface tension liquid-gas: Pendant drop shape; for mass density: 101.3 kPa, Liquid

Cc1ccc(C)c(C)c1 [1,2,4-trimethylbenzene]
[1], 298.15 K
Conditions | mass density [kg/m3] | surface tension liquid-gas [mN/m]
– | 871.64 | 29.25

Cc1ccc(C)c(C)c1 [1,2,4-trimethylbenzene] + CC(C)(C)O
[2]
Conditions | mass density [kg/m3] | surface tension liquid-gas [mN/m]
x2 = 0.0498 | 867.42 | –
x2 = 0.1 | 863.45 | 28.12
x2 = 0.1496 | 859.56 | –
x2 = 0.2007 | 855.56 | 27
x2 = 0.2495 | 851.7 | –
x2 = 0.3001 | 847.58 | 25.92
x2 = 0.351 | 843.33 | –
x2 = 0.4002 | 839.16 | 24.93
x2 = 0.4496 | 834.81 | –
x2 = 0.5005 | 830.25 | 24.06
x2 = 0.5494 | 825.78 | –
x2 = 0.6006 | 821.1 | 23.23
x2 = 0.6502 | 816.48 | –
x2 = 0.6991 | 811.94 | 22.46
x2 = 0.7491 | 807.12 | –
x2 = 0.7993 | 802.21 | 21.7
x2 = 0.85 | 797.46 | –
x2 = 0.9003 | 791.86 | 20.96
x2 = 0.9499 | 786.65 | –

Cc1ccc(C)c(C)c1 [1,2,4-trimethylbenzene] + CC(C)CO
[2]
Conditions | mass density [kg/m3] | surface tension liquid-gas [mN/m]
x2 = 0.0509 | 868.47 | –
x2 = 0.1004 | 865.43 | 28.42
x2 = 0.153 | 862.28 | –
x2 = 0.2018 | 859.33 | 27.54
x2 = 0.249 | 856.45 | –
x2 = 0.3002 | 853.23 | 26.7
x2 = 0.3487 | 850.09 | –
x2 = 0.3996 | 846.71 | 25.95
x2 = 0.4494 | 843.33 | –
x2 = 0.4995 | 839.86 | 25.29
x2 = 0.5488 | 836.34 | –
x2 = 0.6002 | 832.59 | 24.72
x2 = 0.6508 | 828.75 | –
x2 = 0.6989 | 824.99 | 24.16
x2 = 0.7484 | 820.99 | –
x2 = 0.8002 | 816.62 | 23.6
x2 = 0.8506 | 812.2 | –
x2 = 0.8984 | 807.85 | 22.98
x2 = 0.9496 | 802.94 | –

Cc1ccc(C)c(C)c1 [1,2,4-trimethylbenzene] + CCC(C)O
[2]
Conditions | mass density [kg/m3] | surface tension liquid-gas [mN/m]
x2 = 0.0497 | 868.48 | –
x2 = 0.1008 | 865.35 | 28.58
x2 = 0.1486 | 862.53 | –
x2 = 0.201 | 859.43 | 27.94
x2 = 0.2507 | 856.46 | –
x2 = 0.2985 | 853.6 | 27.32
x2 = 0.3492 | 850.47 | –
x2 = 0.4008 | 847.25 | 26.71
x2 = 0.4506 | 844.12 | –
x2 = 0.4997 | 840.93 | 26.15
x2 = 0.5486 | 837.68 | –
x2 = 0.6008 | 834.12 | 25.59
x2 = 0.6505 | 830.64 | –
x2 = 0.6994 | 827.12 | 25.07
x2 = 0.7503 | 823.25 | –
x2 = 0.7999 | 819.39 | 24.56
x2 = 0.8496 | 815.42 | –
x2 = 0.9002 | 811.21 | 24.02
x2 = 0.9489 | 806.96 | –

Cc1ccc(C)c(C)c1 [1,2,4-trimethylbenzene] + CCCCO
[2]
Conditions | mass density [kg/m3] | surface tension liquid-gas [mN/m]
x2 = 0.0499 | 869.1 | –
x2 = 0.1013 | 866.38 | 28.81
x2 = 0.1492 | 863.89 | –
x2 = 0.2002 | 861.22 | 28.42
x2 = 0.2499 | 858.58 | –
x2 = 0.2992 | 855.92 | 28.04
x2 = 0.3503 | 853.09 | –
x2 = 0.4009 | 850.22 | 27.61
x2 = 0.4491 | 847.4 | –
x2 = 0.5012 | 844.25 | 27.15
x2 = 0.5498 | 841.19 | –
x2 = 0.5985 | 838.02 | 26.65
x2 = 0.6501 | 834.53 | –
x2 = 0.6987 | 831.1 | 26.08
x2 = 0.7499 | 827.34 | –
x2 = 0.8001 | 823.46 | 25.49
x2 = 0.8501 | 819.4 | –
x2 = 0.9002 | 815.1 | 24.86
x2 = 0.9503 | 810.56 | –

Cc1cc(C)cc(C)c1 [1,3,5-trimethylbenzene]
[1], 298.15 K
Conditions | mass density [kg/m3] | surface tension liquid-gas [mN/m]
– | 861.03 | 28.09

Cc1cc(C)cc(C)c1 [1,3,5-trimethylbenzene] + CC(C)(C)O
[2]
Conditions | mass density [kg/m3] | surface tension liquid-gas [mN/m]
x2 = 0.0502 | 857.2 | –
x2 = 0.1015 | 853.43 | 27.18
x2 = 0.1482 | 850.08 | –
x2 = 0.2007 | 846.28 | 26.24
x2 = 0.2509 | 842.63 | –
x2 = 0.2995 | 839.02 | 25.35
x2 = 0.3484 | 835.31 | –
x2 = 0.3995 | 831.37 | 24.51
x2 = 0.449 | 827.48 | –
x2 = 0.4992 | 823.4 | 23.75
x2 = 0.5483 | 819.43 | –
x2 = 0.6005 | 815.1 | 23.02
x2 = 0.6502 | 810.91 | –
x2 = 0.6987 | 806.81 | 22.32
x2 = 0.75 | 802.48 | –
x2 = 0.7995 | 798.32 | 21.61
x2 = 0.8501 | 793.99 | –
x2 = 0.9002 | 789.58 | 20.86
x2 = 0.9509 | 785.25 | –

Cc1cc(C)cc(C)c1 [1,3,5-trimethylbenzene] + CC(C)CO
[2]
Conditions | mass density [kg/m3] | surface tension liquid-gas [mN/m]
x2 = 0.0512 | 858.13 | –
x2 = 0.1028 | 855.39 | 27.65
x2 = 0.1517 | 852.81 | –
x2 = 0.1994 | 850.26 | 27.21
x2 = 0.2514 | 847.49 | –
x2 = 0.3006 | 844.78 | 26.67
x2 = 0.3529 | 841.86 | –
x2 = 0.4019 | 839.03 | 26.09
x2 = 0.4494 | 836.25 | –
x2 = 0.4995 | 833.24 | 25.51
x2 = 0.548 | 830.3 | –
x2 = 0.6002 | 827.02 | 24.88
x2 = 0.6495 | 823.78 | –
x2 = 0.699 | 820.47 | 24.25
x2 = 0.7501 | 816.96 | –
x2 = 0.7998 | 813.38 | 23.61
x2 = 0.8504 | 809.65 | –
x2 = 0.9006 | 805.81 | 22.97
x2 = 0.9485 | 802.06 | –

Cc1cc(C)cc(C)c1 [1,3,5-trimethylbenzene] + CCC(C)O
[2]
Conditions | mass density [kg/m3] | surface tension liquid-gas [mN/m]
x2 = 0.0508 | 858.12 | –
x2 = 0.101 | 855.38 | 27.77
x2 = 0.1511 | 852.75 | –
x2 = 0.2007 | 850.14 | 27.36
x2 = 0.25 | 847.61 | –
x2 = 0.2986 | 845.03 | 26.94
x2 = 0.3488 | 842.36 | –
x2 = 0.4007 | 839.55 | 26.47
x2 = 0.4495 | 836.88 | –
x2 = 0.5017 | 833.96 | 25.99
x2 = 0.5484 | 831.33 | –
x2 = 0.6004 | 828.33 | 25.49
x2 = 0.6508 | 825.34 | –
x2 = 0.6991 | 822.4 | 24.98
x2 = 0.7496 | 819.25 | –
x2 = 0.8009 | 816.01 | 24.45
x2 = 0.8504 | 812.75 | –
x2 = 0.9002 | 809.42 | 23.94
x2 = 0.9505 | 805.99 | –

Cc1cc(C)cc(C)c1 [1,3,5-trimethylbenzene] + CCCCO
[2]
Conditions | mass density [kg/m3] | surface tension liquid-gas [mN/m]
x2 = 0.0493 | 858.72 | –
x2 = 0.1006 | 856.4 | 27.92
x2 = 0.1512 | 854.14 | –
x2 = 0.2011 | 851.93 | 27.65
x2 = 0.2514 | 849.67 | –
x2 = 0.3002 | 847.43 | 27.33
x2 = 0.3487 | 845.16 | –
x2 = 0.4003 | 842.68 | 26.91
x2 = 0.4535 | 840.04 | –
x2 = 0.5001 | 837.66 | 26.46
x2 = 0.5484 | 835.11 | –
x2 = 0.6005 | 832.26 | 25.99
x2 = 0.65 | 829.43 | –
x2 = 0.6993 | 826.54 | 25.53
x2 = 0.7497 | 823.44 | –
x2 = 0.7999 | 820.23 | 25.05
x2 = 0.85 | 816.86 | –
x2 = 0.901 | 813.3 | 24.58
x2 = 0.9506 | 809.67 | –

CC(C)CO [2-methyl-1-propanol]
[1], 298.15 K
Conditions | mass density [kg/m3] | surface tension liquid-gas [mN/m]
– | 797.83 | 22.3

CC(C)(C)O [2-methylpropan-2-ol]
[1], 298.15 K
Conditions | mass density [kg/m3] | surface tension liquid-gas [mN/m]
– | 780.85 | 20.13

CCCCO [butan-1-ol]
[1], 298.15 K
Conditions | mass density [kg/m3] | surface tension liquid-gas [mN/m]
– | 805.8 | 24.18

CCC(C)O (configuration not stated) [butan-2-ol]
[1]
Conditions | mass density [kg/m3] | surface tension liquid-gas [mN/m]
298.15 K | 802.34 | 23.46
303.15 K | – | 22.14

— the NIST ThermoML archive (doi:10.1021/je049807n)
